In patent US12391737B2, “Soluble NPY2 receptor agonists” (Boehringer Ingelheim International GmbH, priority 2020, dated 2025):
*1 amine or outer side, *2 acyl side, *3 side chain or, on linkers, in order; H or OH if unused. Where a SMILES comes first, the peptide text is derived from it. Side-chain parts run from the residue outwards. The star is where a group is joined. C18 diacid = O=C(O)CCCCCCCCCCCCCCCCC(=O)*; γGlu = O=C(O)[C@H](CCC(=O)[*:2])N[*:1]; Isovaleryl = CC(C)CC(=O)*; Ahx = NCCCCCC(=O)O

Tests used:
[1] = biological target: T1, Human Neuropeptide Y2 Receptor (Homo sapiens, UniProt P49146); experiment: Radioligand binding competition assay (RLB); details: Table 3, 125I-PYY(1-36) competition; read-out: Ki
T1 construct: purchased CHEMICON HTS066M
T1 sequence (P49146 1-381): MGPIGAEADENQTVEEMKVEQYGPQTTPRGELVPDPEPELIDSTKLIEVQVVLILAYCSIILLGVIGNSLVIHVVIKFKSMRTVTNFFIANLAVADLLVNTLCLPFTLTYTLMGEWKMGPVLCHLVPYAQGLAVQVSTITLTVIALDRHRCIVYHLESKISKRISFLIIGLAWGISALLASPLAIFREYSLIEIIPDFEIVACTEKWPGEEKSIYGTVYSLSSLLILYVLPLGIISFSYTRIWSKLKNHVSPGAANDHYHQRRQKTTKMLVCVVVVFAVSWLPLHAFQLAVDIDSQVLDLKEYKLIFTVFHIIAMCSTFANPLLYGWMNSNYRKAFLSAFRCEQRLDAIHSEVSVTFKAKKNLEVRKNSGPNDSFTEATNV
Outline: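 Filtration competition binding on membranes from cells expressing the receptor, 0.5 μg protein/well, in 50 mM HEPES, 5 mM MgCl2, 1 mM CaCl2, pH 7.4, with 0.2% ovalbumin. Incubation ran 2 h at room temperature, followed by GF/C filtration and scintillation counting. IC50 came from nonlinear sigmoidal fits.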

Solubility determination = details: for Sol6: pH 6; for Sol7: pH 7
Outline: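 Solubility is derived from the ratio of reversed-phase peak areas, filtered sample over a control dissolved at 1 mg/ml in 50% acetonitrile. Peptides are agitated for 2 hours at room temperature in 0.1 M sodium diphosphate at pH 6.4 or 7.0, aiming at 10 mg/ml.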

| SMILES | Ki [1] [nM] | Sol6 (Solubility determination) [mg/mL] | Sol7 (Solubility determination) [mg/mL] |
| --- | --- | --- | --- |
| CC(C)CC(=O)N[C@@H](C)C(=O)N1CCC[C@H]1C(=O)N[C@@H](CCC(=O)O)C(=O)N[C@@H](CCCCNC(=O)CCCCCNC(=O)CC[C@H](NC(=O)CCCCCCCCCCCCCCCCC(=O)O)C(=O)O)C(=O)N1CCC[C@H]1C(=O)N[C@@H](CCC(=O)O)C(=O)N[C@@H](CCC(=O)O)C(=O)N[C@@H](CC(=O)O)C(=O)N[C@@H](C)C(=O)N[C@@H](CO)C(=O)N[C@@H](C)C(=O)N[C@@H](CCC(=O)O)C(=O)N[C@@H](CCC(=O)O)C(=O)N[C@@H](CC(C)C)C(=O)N[C@@H](CCC(N)=O)C(=O)N[C@@H](CCC(N)=O)C(=O)N[C@@H](Cc1ccc(O)cc1)C(=O)N[C@@H](Cc1ccc(O)cc1)C(=O)N[C@H](C(=O)N[C@@H](CO)C(=O)N[C@@H](CC(C)C)C(=O)N[C@@H](CCCNC(=N)N)C(=O)N[C@@H](Cc1c[nH]cn1)C(=O)N[C@@H](Cc1ccc(O)cc1)C(=O)N[C@@H](Cc1ccc(O)cc1)C(=O)N[C@@H](CC(N)=O)C(=O)N[C@@H](Cc1c[nH]c2ccccc12)C(=O)N[C@@H](CC(C)C)C(=O)N[C@H](C(=O)N[C@@H](CCCNC(=N)N)C(=O)N[C@@H](CCC(N)=O)C(=O)N[C@@H](CCCNC(=N)N)C(=O)N[C@@H](Cc1ccc(O)cc1)C(N)=O)[C@@H](C)O)C(C)C [Compound 34, N{alpha-4}-(3-methylbutanoyl)-N{epsilon-7}-(6-[(4S)-4-carboxy-4-(17-carboxyheptadecanamido)butanamido]hexanoyl)[4A,7K,9E,14A,18Q,19Q,22V,28Y,30W,31L]-hPYY(4-36)] | 3.53 | 9.2 | 9.1 |
| CC(C)CC(=O)N[C@@H](C)C(=O)N1CCC[C@H]1C(=O)N[C@@H](C)C(=O)N[C@@H](CCCCNC(=O)CCCCCNC(=O)CC[C@H](NC(=O)CCCCCCCCCCCCCCCCC(=O)O)C(=O)O)C(=O)N1CCC[C@H]1C(=O)N[C@@H](CCC(=O)O)C(=O)N[C@@H](CCC(=O)O)C(=O)N[C@@H](C)C(=O)N[C@@H](C)C(=O)N[C@H](C(=O)N1CCC[C@H]1C(=O)N[C@@H](CCC(=O)O)C(=O)N[C@@H](CCC(=O)O)C(=O)N[C@@H](CC(C)C)C(=O)N[C@@H](CCC(N)=O)C(=O)N[C@@H](CCCNC(=N)N)C(=O)N[C@@H](Cc1ccc(O)cc1)C(=O)N[C@@H](Cc1ccc(O)cc1)C(=O)N[C@H](C(=O)N[C@@H](CO)C(=O)N[C@@H](CC(C)C)C(=O)N[C@@H](CCCNC(=N)N)C(=O)N[C@@H](Cc1c[nH]cn1)C(=O)N[C@@H](Cc1ccc(O)cc1)C(=O)N[C@@H](Cc1ccc(O)cc1)C(=O)N[C@@H](CC(N)=O)C(=O)N[C@@H](Cc1c[nH]c2ccccc12)C(=O)N[C@@H](CC(C)C)C(=O)N[C@H](C(=O)N[C@@H](CCCNC(=N)N)C(=O)N[C@@H](CCC(N)=O)C(=O)N[C@@H](CCCNC(=N)N)C(=O)N[C@@H](Cc1ccc(O)cc1)C(N)=O)[C@@H](C)O)C(C)C)[C@@H](C)O [Compound 35, N{alpha-4}-(3-methylbutanoyl)-N{epsilon-7}-(6-[(4S)-4-carboxy-4-(17-carboxyheptadecanamido)butanamido]hexanoyl)[4A,6A,7K,9E,11A,13T,18Q,22V,28Y,30W,31L]-hPYY(4-36)] | 1.4 | 0.0 | 2.4 |
| CC[C@H](C)[C@H](NC(=O)[C@H](CCC(=O)O)NC(=O)[C@H](CCC(=O)O)NC(=O)[C@@H]1CCCN1C(=O)[C@@H](NC(=O)[C@H](C)NC(=O)[C@H](C)NC(=O)[C@H](CCC(=O)O)NC(=O)[C@H](CCC(=O)O)NC(=O)[C@@H]1CCCN1C(=O)[C@H](CCCCNC(=O)CCCCCNC(=O)CC[C@H](NC(=O)CCCCCCCCCCCCCCCCC(=O)O)C(=O)O)NC(=O)[C@H](C)NC(=O)[C@@H]1CCCN1C(=O)[C@H](C)NC(=O)CC(C)C)[C@@H](C)O)C(=O)N[C@@H](CCC(N)=O)C(=O)N[C@@H](CCCNC(=N)N)C(=O)N[C@@H](Cc1ccc(O)cc1)C(=O)N[C@@H](Cc1ccc(O)cc1)C(=O)N[C@H](C(=O)N[C@@H](CO)C(=O)N[C@@H](CC(C)C)C(=O)N[C@@H](CCCNC(=N)N)C(=O)N[C@@H](Cc1c[nH]cn1)C(=O)N[C@@H](Cc1ccc(O)cc1)C(=O)N[C@@H](Cc1ccc(O)cc1)C(=O)N[C@@H](CC(N)=O)C(=O)N[C@@H](Cc1c[nH]c2ccccc12)C(=O)N[C@@H](CC(C)C)C(=O)N[C@H](C(=O)N[C@@H](CCCNC(=N)N)C(=O)N[C@@H](CCC(N)=O)C(=O)N[C@@H](CCCNC(=N)N)C(=O)N[C@@H](Cc1ccc(O)cc1)C(N)=O)[C@@H](C)O)C(C)C [Compound 36, N{alpha-4}-(3-methylbutanoyl)-N{epsilon-7}-(6-[(4S)-4-carboxy-4-(17-carboxyheptadecanamido)butanamido]hexanoyl)[4A,6A,7K,9E,11A,13T,17I,18Q,22V,28Y,30W,31L]-hPYY(4-36)] | 1.25 | 0.0 | 0.4 |
| CC(C)CC(=O)N[C@@H](C)C(=O)N1CCC[C@H]1C(=O)N[C@@H](CCC(=O)O)C(=O)N[C@@H](CCCCNC(=O)CCCCCNC(=O)CC[C@H](NC(=O)CCCCCCCCCCCCCCCCC(=O)O)C(=O)O)C(=O)N1CCC[C@H]1C(=O)N[C@@H](CCC(=O)O)C(=O)N[C@@H](CCC(=O)O)C(=O)N[C@@H](CC(=O)O)C(=O)N[C@@H](C)C(=O)N[C@H](C(=O)N1CCC[C@H]1C(=O)N[C@@H](CCC(=O)O)C(=O)N[C@@H](CCC(=O)O)C(=O)N[C@@H](CC(C)C)C(=O)N[C@@H](CCC(N)=O)C(=O)N[C@@H](CCC(=O)O)C(=O)N[C@@H](Cc1ccc(O)cc1)C(=O)N[C@@H](Cc1ccc(O)cc1)C(=O)N[C@H](C(=O)N[C@@H](CO)C(=O)N[C@@H](CC(C)C)C(=O)N[C@@H](CCCNC(=N)N)C(=O)N[C@@H](Cc1c[nH]cn1)C(=O)N[C@@H](Cc1ccc(O)cc1)C(=O)N[C@@H](Cc1ccc(O)cc1)C(=O)N[C@@H](CC(N)=O)C(=O)N[C@@H](Cc1c[nH]c2ccccc12)C(=O)N[C@@H](CC(C)C)C(=O)N[C@H](C(=O)N[C@@H](CCCNC(=N)N)C(=O)N[C@@H](CCC(N)=O)C(=O)N[C@@H](CCCNC(=N)N)C(=O)N[C@@H](Cc1ccc(O)cc1)C(N)=O)[C@@H](C)O)C(C)C)[C@@H](C)O [Compound 38, N{alpha-4}-(3-methylbutanoyl)-N{epsilon-7}-(6-[(4S)-4-carboxy-4-(17-carboxyheptadecanamido)butanamido]hexanoyl)[4A,7K,9E,13T,18Q,19E,22V,28Y,30W,31L]-hPYY(4-36)] | 12.4 | 10.0 | 10.0 |
| CC(C)CC(=O)N[C@@H](C)C(=O)N1CCC[C@H]1C(=O)N[C@@H](CCC(=O)O)C(=O)N[C@@H](CCCCNC(=O)CCCCCNC(=O)CC[C@H](NC(=O)CCCCCCCCCCCCCCCCC(=O)O)C(=O)O)C(=O)N1CCC[C@H]1C(=O)N[C@@H](CCC(=O)O)C(=O)N[C@@H](CCC(=O)O)C(=O)N[C@@H](CC(=O)O)C(=O)N[C@@H](C)C(=O)N[C@@H](CO)C(=O)N1CCC[C@H]1C(=O)N[C@@H](CCC(=O)O)C(=O)N[C@@H](C)C(=O)N[C@@H](CC(C)C)C(=O)N[C@@H](CCC(N)=O)C(=O)N[C@@H](CCC(=O)O)C(=O)N[C@@H](Cc1ccc(O)cc1)C(=O)N[C@@H](Cc1ccc(O)cc1)C(=O)N[C@H](C(=O)N[C@@H](CO)C(=O)N[C@@H](CC(C)C)C(=O)N[C@@H](CCCNC(=N)N)C(=O)N[C@@H](Cc1c[nH]cn1)C(=O)N[C@@H](Cc1ccc(O)cc1)C(=O)N[C@@H](Cc1ccc(O)cc1)C(=O)N[C@@H](CC(N)=O)C(=O)N[C@@H](Cc1c[nH]c2ccccc12)C(=O)N[C@@H](CC(C)C)C(=O)N[C@H](C(=O)N[C@@H](CCCNC(=N)N)C(=O)N[C@@H](CCC(N)=O)C(=O)N[C@@H](CCCNC(=N)N)C(=O)N[C@@H](Cc1ccc(O)cc1)C(N)=O)[C@@H](C)O)C(C)C [Compound 39, N{alpha-4}-(3-methylbutanoyl)-N{epsilon-7}-(6-[(4S)-4-carboxy-4-(17-carboxyheptadecanamido)butanamido]hexanoyl)[4A,7K,9E,16A,18Q,19E,22V,28Y,30W,31L]-hPYY(4-36)] | 2.73 | 10.0 | 10.0 |
| CC(C)CC(=O)N[C@@H](C)C(=O)N1CCC[C@H]1C(=O)N[C@@H](CCC(=O)O)C(=O)N[C@@H](CCCCNC(=O)CCCCCNC(=O)CC[C@H](NC(=O)CCCCCCCCCCCCCCCCC(=O)O)C(=O)O)C(=O)N1CCC[C@H]1C(=O)N[C@@H](CCC(=O)O)C(=O)N[C@@H](CCC(=O)O)C(=O)N[C@@H](CC(=O)O)C(=O)N[C@@H](C)C(=O)N[C@@H](CCC(=O)O)C(=O)N1CCC[C@H]1C(=O)N[C@@H](CCC(=O)O)C(=O)N[C@@H](CCC(=O)O)C(=O)N[C@@H](CC(C)C)C(=O)N[C@@H](CCC(N)=O)C(=O)N[C@@H](CCCNC(=N)N)C(=O)N[C@@H](Cc1ccc(O)cc1)C(=O)N[C@@H](Cc1ccc(O)cc1)C(=O)N[C@H](C(=O)N[C@@H](CO)C(=O)N[C@@H](CC(C)C)C(=O)N[C@@H](CCCNC(=N)N)C(=O)N[C@@H](Cc1c[nH]cn1)C(=O)N[C@@H](Cc1ccc(O)cc1)C(=O)N[C@@H](Cc1ccc(O)cc1)C(=O)N[C@@H](CCC(N)=O)C(=O)N[C@@H](Cc1c[nH]c2ccccc12)C(=O)N[C@@H](CC(C)C)C(=O)N[C@H](C(=O)N[C@@H](CCCNC(=N)N)C(=O)N[C@@H](CCC(N)=O)C(=O)N[C@@H](CCCNC(=N)N)C(=O)N[C@@H](Cc1ccc(O)cc1)C(N)=O)[C@@H](C)O)[C@@H](C)O [Compound 41, N{alpha-4}-(3-methylbutanoyl)-N{epsilon-7}-(6-[(4S)-4-carboxy-4-(17-carboxyheptadecanamido)butanamido]hexanoyl)[4A,7K,9E,13E,18Q,22T,28Y,30W,31L]-hPYY(4-36)] (Isovaleryl-APEK([Ahx-γGlu-C18 diacid])PEEDAEPEELQRYYTSLRHYYQWLTRQRY-NH2) | 19.8 | 9.8 | 10.0 |
